This passage reports IC50 results from patent US11084814B2, “Pyrido[3, 4-d]pyrimidine derivative and pharmaceutically acceptable salt thereof” (Teijin Pharma Limited, priority 2016, dated 2021).

One experiment concerns the target T1, CDK2/cyclin A2 (Homo sapiens, UniProt P24941).
T1 construct: purchased Carna Biosciences, Inc. QS S Assist CDK2/Cyclin A2_FP Kit
Description: Human CDK2/cyclin A2 inhibitory activity (QS S Assist CDK2/Cyclin A2_FP Kit, IMAP fluorescent polarization). It is filed as biochemical. The note with it: read-out: CDK2 Activity symbol. In outline: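 Kit CDK2/cyclin A2 (2.5 ng/well) was reacted with kit ATP/substrate/metal in 20 mM HEPES pH 7.4, 0.01% Tween 20 and 2 mM DTT for 60 min at room temperature. IMAP binding reagent was added for 30 min, then fluorescence polarization was read at 485/535 nm. IC50 came from dose-response fitting of percent inhibition.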

The next experiment deals with T2, CDK4/cyclin D3 (Homo sapiens, UniProt P11802).
T2 construct: purchased Carna Biosciences, Inc. QS S Assist CDK4/Cyclin D3_FP Kit
Description: Human CDK4/cyclin D3 inhibitory activity (QS S Assist CDK4/Cyclin D3_FP Kit, IMAP fluorescent polarization). It is filed as biochemical. The note with it: read-out: CDK4 Activity symbol. In outline:
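Kinase reactions used kit CDK4/cyclin D3 at 12.5–25 ng/well with the kit ATP/substrate/metal mix in 20 mM HEPES (pH 7.4), 0.01% Tween20 and 2 mM DTT, run 45 min at room temperature. Phosphorylation was detected by IMAP fluorescence polarization (ex 485/em 535 nm) after 30 min binding in the dark. IC50 was fitted from percent inhibition against DMSO controls with and without enzyme.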

T2 sequence (P11802 whole entry): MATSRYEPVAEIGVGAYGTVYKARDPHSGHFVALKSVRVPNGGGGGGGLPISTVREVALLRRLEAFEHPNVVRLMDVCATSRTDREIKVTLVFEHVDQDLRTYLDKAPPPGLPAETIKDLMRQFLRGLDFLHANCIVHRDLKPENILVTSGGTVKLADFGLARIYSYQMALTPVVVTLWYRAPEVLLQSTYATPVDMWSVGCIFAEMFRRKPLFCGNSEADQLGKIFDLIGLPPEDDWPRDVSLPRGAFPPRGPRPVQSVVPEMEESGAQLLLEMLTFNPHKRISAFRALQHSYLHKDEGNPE
T2 sequence (P30281 whole entry partner): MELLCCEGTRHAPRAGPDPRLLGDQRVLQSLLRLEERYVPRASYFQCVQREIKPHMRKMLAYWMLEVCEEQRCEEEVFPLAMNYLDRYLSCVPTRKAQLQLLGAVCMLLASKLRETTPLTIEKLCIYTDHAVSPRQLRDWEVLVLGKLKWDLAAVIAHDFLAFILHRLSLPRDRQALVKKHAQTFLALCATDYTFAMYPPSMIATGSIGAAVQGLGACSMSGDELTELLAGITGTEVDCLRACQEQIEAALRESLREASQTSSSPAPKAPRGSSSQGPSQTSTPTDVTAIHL

`CN(C)CCN1CCc2nc(Nc3ncc4cc(CCO)nc(N5CCCCC5)c4n3)ccc2C1` [Compound 110]: the IC50 at CDK2/cyclin A2 was at least 100 nM; at CDK4/cyclin D3 it was below 10 nM.
On the same counts, the results for `C[C@@H](O)c1cc2cnc(Nc3ccc4c(n3)CCN(CCO)C4)nc2c(N2CCCCC2)n1` [Compound 111] are at least 100 nM and below 10 nM.
The like results for `C[C@@H](O)c1cc2cnc(Nc3ccc4c(n3)CCN(CCO)C4)nc2c(N2CCC(F)CC2)n1` [Compound 112] were, in that order, at least 100 nM and below 10 nM.
Regarding `CC(O)c1cc2cnc(Nc3ccc(CN4CCN(CCO)CC4)cn3)nc2c(N2CC(C)C(C)C2)n1` (stereo not drawn) [Compound 113], the figures for the IC50 on CDK2/cyclin A2 and at CDK4/cyclin D3 were at least 100 nM and below 10 nM, respectively.
The like results for `C[C@@H](O)c1cc2cnc(Nc3ccc(N4CCN(CCS(C)(=O)=O)CC4)nn3)nc2c(N2CCCCC2)n1` [Compound 114, (R)-1-(2-((6-(4-(2-(methylsulfonyl)ethyl)piperazin-1-yl)pyridazin-3-yl)amino)-8-(piperidin-1-yl)pyrido[3,4-d]pyrimidin-6-yl)ethanol] were, in that order, at least 100 nM and below 10 nM.
On to `C[C@@H](O)c1cc2cnc(Nc3ccc(CN4CCN(C)CC4)cn3)nc2c(N2CCC(F)CC2)n1` [Compound 115], for which the IC50 at CDK2/cyclin A2 was at least 100 nM; at CDK4/cyclin D3, below 10 nM.
The like results for `C[C@@H](O)c1cc2cnc(Nc3ccc(CN4CCN(C)CC4)cn3)nc2c(N2CC[C@@H](F)C2)n1` [Compound 116] were, in that order, at least 100 nM and below 10 nM.
Regarding `C[C@@H](O)c1cc2cnc(Nc3ccc(CN4CCN(C)CC4)cn3)nc2c(N2CC[C@H](F)C2)n1` [Compound 117], the results for the IC50 at CDK2/cyclin A2 and at CDK4/cyclin D3 were at least 100 nM and below 10 nM, respectively.
The like results for `CO[C@H](C)c1cc2cnc(Nc3ccc(N4CCNCC4)nn3)nc2c(N2CCCCC2)n1` [Compound 118] were, in that order, at least 100 nM and below 10 nM.
As for `CO[C@H](C)c1cc2cnc(Nc3ccc(CN4CCNCC4)cn3)nc2c(N2CCCCC2)n1` [Compound 119], the IC50 is at least 100 nM at CDK2/cyclin A2 and below 10 nM at CDK4/cyclin D3.
The like results for `C[C@@H](O)c1cc2cnc(Nc3ccc(N4CCN(C)CCC4=O)cn3)nc2c(N2CCCC2)n1` [Compound 120] were, in that order, at least 100 nM and below 10 nM.
As to `C[C@@H](O)c1cc2cnc(Nc3ccc(N4CCN(C)CCC4=O)cn3)nc2c(N2CCCCC2)n1` [Compound 121], the IC50 at CDK2/cyclin A2 was at least 100 nM; on CDK4/cyclin D3, below 10 nM.
On the same counts, the results for `CCN1CCN(Cc2ccc(Nc3ncc4cc([C@@H](C)O)nc(N5CCCCC5)c4n3)nc2)CC1` [Compound 122] are at least 100 nM and below 10 nM.
Regarding `C[C@@H](O)c1cc2cnc(Nc3ccc(N4CCN(C)CC4)nn3)nc2c(N2CCCCC2)n1` [Compound 123, (R)-1-(2-((6-(4-methylpiperazin-1-yl)pyridazin-3-yl)amino)-8-(piperidin-1-yl)pyrido[3,4-d]pyrimidin-6-yl)ethanol], the results for the IC50 at CDK2/cyclin A2 and on CDK4/cyclin D3 were at least 100 nM and below 10 nM, respectively.
On the same counts, the results for `C[C@@H](O)c1cc2cnc(Nc3ccc(N4CCN(C)CC4)nn3)nc2c(N2CCC(F)CC2)n1` [Compound 124] are at least 100 nM and below 10 nM.
In the case of `CO[C@H](C)c1cc2cnc(Nc3ccc(N4CCN(C)CC4)nn3)nc2c(N2CCC(F)CC2)n1` [Compound 125], the IC50 was at least 100 nM on CDK2/cyclin A2 and 10 to 100 nM at CDK4/cyclin D3.
The like results for `CO[C@H](C)c1cc2cnc(Nc3ccc(N4CCNCC4)nn3)nc2c(N2CCC(F)CC2)n1` [Compound 126] were, in that order, at least 100 nM and below 10 nM.
In the case of `C[C@@H](O)c1cc2cnc(Nc3ccc(N4CCCNCC4=O)cn3)nc2c(N2CCCCC2)n1` [Compound 127], the IC50 is at least 100 nM at CDK2/cyclin A2 and below 10 nM on CDK4/cyclin D3.
The like results for `OCCN1CCN(Cc2ccc(Nc3ncc4cc(C(F)F)nc(N5CCCCC5)c4n3)nc2)CC1` [Compound 128] were, in that order, at least 100 nM and below 10 nM.
For the molecule `OCCN1CCN(Cc2ccc(Nc3ncc4cc(C(F)F)nc(N5CCC(O)CC5)c4n3)nc2)CC1` [Compound 129], the IC50 at CDK2/cyclin A2 was at least 100 nM; at CDK4/cyclin D3, below 10 nM.
The like results for `C[C@@H](O)c1cc2cnc(Nc3ccc4c(n3)CCN(CCCO)C4)nc2c(N2CCCCC2)n1` [Compound 130] were, in that order, at least 100 nM and below 10 nM.
In the case of `C[C@@H](O)c1cc2cnc(Nc3ccc(O[C@H]4CCN(CCO)C[C@@H]4F)cn3)nc2c(N2CCCCC2)n1` [Compound 131], the values for the IC50 on CDK2/cyclin A2 and on CDK4/cyclin D3 were at least 100 nM and 10 to 100 nM, respectively.
The like results for `C[C@@H](O)c1cc2cnc(Nc3ccc(O[C@@H]4CCN(CCO)C[C@@H]4F)cn3)nc2c(N2CCCCC2)n1` [Compound 132] were, in that order, at least 100 nM and below 10 nM.
As to `C[C@@H](O)c1cc2cnc(Nc3ccc(CN4CCN(C)CC4)cn3)nc2c(N2CC(F)(F)C2)n1` [Compound 133], the IC50 at CDK2/cyclin A2 is at least 100 nM; at CDK4/cyclin D3, 10 to 100 nM.
The like results for `OCCN1CCc2nc(Nc3ncc4cc(CO)nc(N5CCCCC5)c4n3)ccc2C1` [Compound 135] were, in that order, at least 100 nM and below 10 nM.
The like results for `CC(O)c1cc2cnc(Nc3ccc(CN4CCN(C)CC4)cn3)nc2c(N2CCCC2C)n1` (stereo not drawn) [Compound 136] were, in that order, at least 100 nM and below 10 nM.
The like results for `C[C@@H](O)c1cc2cnc(Nc3ccc(CN4CCN(C)CC4)cn3)nc2c(N2CCC[C@@H]2C)n1` [Compound 137] were, in that order, at least 100 nM and 10 to 100 nM.
For the molecule `C[C@@H]1CCN(c2nc([C@@H](C)O)cc3cnc(Nc4ccc(CN5CCN(C)CC5)cn4)nc23)C1` [Compound 138], the IC50 on CDK2/cyclin A2 is at least 100 nM; on CDK4/cyclin D3, below 10 nM.
On the same counts, the results for `C[C@H]1CCN(c2nc([C@@H](C)O)cc3cnc(Nc4ccc(CN5CCN(C)CC5)cn4)nc23)C1` [Compound 139] are at least 100 nM and below 10 nM.
As to `CC1CCC(C)N1c1nc([C@@H](C)O)cc2cnc(Nc3ccc(CN4CCN(C)CC4)cn3)nc12` (stereo partly drawn) [Compound 140], the values for the IC50 on CDK2/cyclin A2 and on CDK4/cyclin D3 were at least 100 nM and below 10 nM, respectively.
`CC1CN(c2nc([C@@H](C)O)cc3cnc(Nc4ccc(CN5CCN(C)CC5)cn4)nc23)CC1C` (stereo partly drawn) [Compound 141]: the IC50 on CDK2/cyclin A2 was at least 100 nM; at CDK4/cyclin D3, below 10 nM.
For the molecule `C[C@@H](O)c1cc2cnc(Nc3ccc(CN4CCN(C)CC4)cn3)nc2c(N2CCC(C)(C)C2)n1` [Compound 142], the IC50 is at least 100 nM at CDK2/cyclin A2 and below 10 nM on CDK4/cyclin D3.
Turning to `C[C@@H](O)c1cc2cnc(Nc3ccc(CN4CCN(C)CC4)cn3)nc2c(N2C3CCC2CC3)n1` [Compound 143], the figures for the IC50 on CDK2/cyclin A2 and on CDK4/cyclin D3 were at least 100 nM and below 10 nM, respectively.
On the same counts, the results for `C[C@@H](O)c1cc2cnc(Nc3ccc(CN4CCN(C)CC4)cn3)nc2c(N2CCC(C(F)(F)F)CC2)n1` [Compound 144] are at least 100 nM and below 10 nM.
Consider `C[C@@H](O)c1cc2cnc(Nc3ccc(CN4CCN(C)CC4)cn3)nc2c(N2CCOCC2)n1` [Compound 145], for which the figures for the IC50 at CDK2/cyclin A2 and on CDK4/cyclin D3 were at least 100 nM and 10 to 100 nM, respectively.
The like results for `CCC(O)c1cc2cnc(Nc3ccc(CN4CCN(C)CC4)cn3)nc2c(N2CCCCC2)n1` (stereo not drawn) [Compound 146] were, in that order, at least 100 nM and below 10 nM.
The like results for `C[C@@H](O)c1cc2cnc(Nc3ccc4c(n3)CCN(C(=O)C3CCNCC3)C4)nc2c(N2CCCCC2)n1` [Compound 147] were, in that order, at least 100 nM and below 10 nM.
As to `C[C@@H](O)c1cc2cnc(Nc3ccc4c(n3)CCN(C(=O)C3CCN(CCO)CC3)C4)nc2c(N2CCCCC2)n1` [Compound 148], the IC50 on CDK2/cyclin A2 is at least 100 nM; at CDK4/cyclin D3, below 10 nM.
The like results for `C[C@@H](O)c1cc2cnc(Nc3ccc4c(n3)CCN(C(=O)C3CCN(C)CC3)C4)nc2c(N2CCCCC2)n1` [Compound 149] were, in that order, at least 100 nM and below 10 nM.
`C[C@@H](O)c1cc2cnc(Nc3ccc(CN4CCN(C)CC4)cn3)nc2c(N2CCC(F)(F)CC2)n1` [Compound 150]: the results for the IC50 at CDK2/cyclin A2 and on CDK4/cyclin D3 were at least 100 nM and below 10 nM, respectively.
On the same counts, the results for `C[C@@H](O)c1cc2cnc(Nc3ccc(N4CCN(CCO)CCC4=O)cn3)nc2c(N2CCCCC2)n1` [Compound 151] are at least 100 nM and below 10 nM.
The like results for `CC(O)c1cc2cnc(Nc3ccc(CN4CCN(C)CC4C)cn3)nc2c(N2CCCCC2)n1` (stereo not drawn) [Compound 152] were, in that order, at least 100 nM and below 10 nM.
On the same counts, the results for `C[C@@H](O)c1cc2cnc(Nc3ccc(CN4CCNCC4)cn3)nc2c(N2CCCCC2)n1` [Compound 155] are at least 100 nM and below 10 nM.
As for `C[C@@H](O)c1cc2cnc(Nc3ccc(CN4CCN(CCO)CC4)cn3)nc2c(C2=CCCCC2)n1` [Compound 156], the IC50 on CDK2/cyclin A2 is at least 100 nM; on CDK4/cyclin D3 it was below 10 nM.
The like results for `CC(O)c1cc2cnc(Nc3ccc(CN4CCN(C)CC4)cn3)nc2c(N2CC3CC3C2)n1` (stereo not drawn) [Compound 157] were, in that order, at least 100 nM and below 10 nM.
For `C[C@@H](O)c1cc2cnc(Nc3ccc(CN4CCN(C)CC4)cn3)nc2c(N2CCCCCC2)n1` [Compound 158], the IC50 was at least 100 nM on CDK2/cyclin A2 and below 10 nM at CDK4/cyclin D3.
On the same counts, the results for `CC[C@@H](O)c1cc2cnc(Nc3ccc(CN4CCN(CCO)CC4)cn3)nc2c(N2CCCCC2)n1` [Compound 159] are at least 100 nM and 10 to 100 nM.
On the same counts, the results for `CC[C@H](O)c1cc2cnc(Nc3ccc(CN4CCN(CCO)CC4)cn3)nc2c(N2CCCCC2)n1` [Compound 160] are at least 100 nM and below 10 nM.
